{"source": "patent US12460262B2", "about": "“Methods of detecting, preventing, reversing, and treating neurological diseases” (Washington University, priority 2018, dated 2025)", "key": {"[1]": {"test_system": "cultured fibroblasts of MPS patients", "conditions": "cited from earlier work"}, "NAGLU-deficient mice": {"test_system": "NAGLU-deficient mice", "conditions": "cited from earlier work"}, "Aβ secretion": {"test_system": "Aβ secretion", "conditions": "in vitro exposure; cited from earlier work"}, "ISF Aβ levels": {"test_system": "ISF Aβ levels", "set-up": "species or system mice", "conditions": "mouse, in vivo", "procedure": "To investigate the effect of NAGLU on Aβ generation and clearance, in vivo microdialysis is used to dynamically assess ISF Aβ metabolism in the hippocampus of 5XFAD/NAGLU (+14 5XFAD/NAGLU (−/−) mice and 5XFAD littermates injected with AVV2/9 or PBS at 3-4 months of age. To assess ISF Aβ levels over time in the hippocampus of awake, freely moving mice in vivo microdialysis is performed as previously described. Briefly, under isoflurane anesthesia, a guide cannula is stereotaxically implanted above the hippocampus (3.1 mm behind bregma, 2.5 mm lateral to midline, and 1.2 mm below dura at a 12° angle). A microdialysis probe is inserted through the guide cannula into the brain. Artificial CSF is used as microdialysis perfusion buffer. Microdialysis samples are collected every 60-90 min and are assessed for Aβ40 or Aβ42 by ELISAs. The mean concentration of Aβ over 6 hr is defined as basal concentration of ISF Aβ. For each animal, all Aβ concentrations are normalized to the basal Aβ concentration for that mouse. After basal concentration is determined mice are administered a blood-brain permeable γ-secretase inhibitor (LY411575, 3 mg/kg subcutaneously) to rapidly block the production of Aβ. […] The half-life of ISF Aβ is calculated on the basis of the slope of the semi-log plot of % change in Aβ versus time. […]"}}, "data": [{"smiles": "O=c1c(-c2ccc(O)cc2)coc2cc(O)cc(O)c12", "note": "[Genistein, 4′,5,7-trihydroxyisoflavone or 5,7-dihydroxy-3-(4-hydroxyphenyl)-4H-1-benzopyran-4-one]", "values": [{"measurement": "synthesis of glycosaminoglycans (GAGs)", "setting": "[1]", "value": "inhibits synthesis of glycosaminoglycans (GAGs)"}, {"measurement": "lysosomal storage material", "setting": "NAGLU-deficient mice", "value": "reduces lysosomal storage material"}]}, {"smiles": "Cl.N", "note": "[ammonium chloride]", "values": [{"measurement": "Aβ secretion", "setting": "Aβ secretion", "value": "reduces Aβ secretion"}]}, {"smiles": "CO/C1=C\\C(C)=C\\[C@@H](C)[C@@H](O)[C@@H](C)C/C(C)=C/C=C/[C@H](OC)[C@@H]([C@@H](C)[C@@H](O)[C@H](C)[C@@]2(O)C[C@@H](O)[C@H](C)[C@@H](C(C)C)O2)OC1=O", "note": "[bafilomycin A1]", "values": [{"measurement": "Aβ secretion", "setting": "Aβ secretion", "value": "reduces Aβ secretion"}]}, {"smiles": "CCN(CC)CCCC(C)Nc1ccnc2cc(Cl)ccc12", "note": "(centres unmarked) [Chloroquine]", "values": [{"measurement": "change of ISF levels of Aβ", "setting": "ISF Aβ levels", "value": "did not change"}]}]}
